According to ChEMBL document CHEMBL1201862, “PubChem BioAssay data set” (2004):
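Dose response: 5 concentrations. Exposure: 48 h. Format: 96-well plates. Endpoint: linear interpolation; highest concentration if not reached. GI50 = concentration required for 50% inhibition of growth.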 The source made the active and inactive calls. No stated cut-off is given here; in the data, active = GI50 up to about 1.1 µM and inactive = higher.

Experiments:
Test in all cases: NCI tumour cell line growth inhibition, 48 h
A498 = tested on: A498
DU-145 = tested on: DU-145
EKVX = tested on: EKVX
HT-29 = tested on: HT-29
Hs-578T = tested on: Hs-578T
IGROV-1 = tested on: IGROV-1
M14 = tested on: M14
NCI-H23 = tested on: NCI-H23
NCI-H460 = tested on: NCI-H460
NCI-H522 = tested on: NCI-H522
OVCAR-3 = tested on: OVCAR-3
PC-3 = tested on: PC-3
SK-OV-3 = tested on: SK-OV-3
SNB-19 = tested on: SNB-19
UACC-257 = tested on: UACC-257
HCC 2998 = tested on: HCC 2998
HL-60 = tested on: HL-60
HOP-62 = tested on: HOP-62
MDA-MB-231 = tested on: MDA-MB-231

SMILES | GI50 (A498) | GI50 (DU-145) | GI50 (EKVX) | GI50 (HT-29) | GI50 (Hs-578T) | GI50 (IGROV-1) | GI50 (M14) | GI50 (NCI-H23) | GI50 (NCI-H460) | GI50 (NCI-H522) | GI50 (OVCAR-3) | GI50 (PC-3) | GI50 (SK-OV-3) | GI50 (SNB-19) | GI50 (UACC-257) | GI50 (HCC 2998) | GI50 (HL-60) | GI50 (HOP-62) | GI50 (MDA-MB-231)
CCn1nc(C)c2c1C(=O)NC(C)C(=O)N2 (stereo not drawn) | > 100 µM (inactive) | > 100 µM (inactive) | > 100 µM (inactive) | > 100 µM (inactive) | > 100 µM (inactive) | > 100 µM (inactive) | > 100 µM (inactive) | > 100 µM (inactive) | > 100 µM (inactive) | > 100 µM (inactive) | > 100 µM (inactive) | > 100 µM (inactive) | > 100 µM (inactive) | > 100 µM (inactive) | > 100 µM (inactive) | – | – | – | –
Cc1[nH]c(=O)nc(S)c1C(=O)Nc1cccc2cc3ccccc3cc12 | > 100 µM (inactive) | > 100 µM (inactive) | > 100 µM (inactive) | > 100 µM (inactive) | > 100 µM (inactive) | > 100 µM (inactive) | > 100 µM (inactive) | > 100 µM (inactive) | > 100 µM (inactive) | – | > 100 µM (inactive) | > 100 µM (inactive) | > 100 µM (inactive) | > 100 µM (inactive) | – | > 100 µM (inactive) | > 100 µM (inactive) | > 100 µM (inactive) | –
Cc1nc2ccc(Br)cc2c(=O)n1-c1ccc(N)cc1 | > 100 µM (inactive) | > 100 µM (inactive) | > 100 µM (inactive) | > 100 µM (inactive) | > 100 µM (inactive) | > 100 µM (inactive) | > 100 µM (inactive) | – | > 100 µM (inactive) | – | > 100 µM (inactive) | > 100 µM (inactive) | > 100 µM (inactive) | > 100 µM (inactive) | > 100 µM (inactive) | > 100 µM (inactive) | > 100 µM (inactive) | > 100 µM (inactive) | > 100 µM (inactive)
CCCCNC(=S)Nc1nc(C(=O)NNS(=O)(=O)c2ccccc2)cs1 | 45.2 µM (inactive) | 35.5 µM (inactive) | 31.6 µM (inactive) | > 10 µM (inactive) | – | 24.9 µM (inactive) | 40.1 µM (inactive) | 44 µM (inactive) | – | 28.8 µM (inactive) | 24.2 µM (inactive) | 29 µM (inactive) | 36.6 µM (inactive) | – | 22.9 µM (inactive) | 30.5 µM (inactive) | – | 36.4 µM (inactive) | 29.4 µM (inactive)
O=Cc1ccccc1B(O)O | – | < 0.01 µM (active) | < 0.01 µM (active) | 18.9 µM (inactive) | 0.231 µM (active) | 29.6 µM (inactive) | > 100 µM (inactive) | – | > 100 µM (inactive) | 22.9 µM (inactive) | 33.6 µM (inactive) | 22.1 µM (inactive) | > 100 µM (inactive) | > 100 µM (inactive) | 25.8 µM (inactive) | – | 22 µM (inactive) | > 100 µM (inactive) | 37.8 µM (inactive)
CCOP(=O)(OCC)C(C#N)Cc1ccco1 (stereo not drawn) | > 10 µM (inactive) | 1.98 µM (inactive) | > 10 µM (inactive) | > 10 µM (inactive) | > 10 µM (inactive) | > 10 µM (inactive) | > 10 µM (inactive) | > 10 µM (inactive) | > 10 µM (inactive) | – | > 10 µM (inactive) | > 10 µM (inactive) | > 10 µM (inactive) | > 10 µM (inactive) | > 10 µM (inactive) | > 10 µM (inactive) | > 10 µM (inactive) | > 10 µM (inactive) | > 10 µM (inactive)
N#CCCC1(CCC#N)S(=O)(=O)OCCOS1(=O)=O | – | 58.3 µM (inactive) | > 100 µM (inactive) | 45.9 µM (inactive) | 18.2 µM (inactive) | – | 56.8 µM (inactive) | 36.1 µM (inactive) | – | 27.1 µM (inactive) | 32.1 µM (inactive) | 63.4 µM (inactive) | 51.3 µM (inactive) | 48.8 µM (inactive) | > 100 µM (inactive) | – | 23.3 µM (inactive) | < 0.01 µM (active) | –
O=C(N/S(=N/S(=O)(=O)c1ccc(Br)cc1)C(Cl)(Cl)Cl)c1ccccc1 (stereo not drawn) | > 100 µM (inactive) | > 100 µM (inactive) | > 100 µM (inactive) | > 100 µM (inactive) | > 100 µM (inactive) | > 100 µM (inactive) | > 100 µM (inactive) | > 100 µM (inactive) | > 100 µM (inactive) | – | > 100 µM (inactive) | > 100 µM (inactive) | > 100 µM (inactive) | > 100 µM (inactive) | > 100 µM (inactive) | – | – | > 100 µM (inactive) | > 100 µM (inactive)
O=C1OC(C(O)CO)C(O)=C1O (stereo not drawn) | – | > 100 µM (inactive) | > 100 µM (inactive) | > 100 µM (inactive) | > 100 µM (inactive) | > 100 µM (inactive) | > 100 µM (inactive) | > 100 µM (inactive) | > 100 µM (inactive) | > 100 µM (inactive) | > 100 µM (inactive) | > 100 µM (inactive) | – | > 100 µM (inactive) | > 100 µM (inactive) | > 100 µM (inactive) | > 100 µM (inactive) | > 100 µM (inactive) | > 100 µM (inactive)
CCOC(=O)/C(=C\NC(C)(C)CO)c1nc2ccccc2[nH]1 | 54.6 µM (inactive) | > 100 µM (inactive) | > 100 µM (inactive) | 88.7 µM (inactive) | 34.4 µM (inactive) | 41.5 µM (inactive) | > 100 µM (inactive) | 67.8 µM (inactive) | 36.1 µM (inactive) | 61.7 µM (inactive) | > 100 µM (inactive) | – | > 100 µM (inactive) | > 100 µM (inactive) | > 100 µM (inactive) | 46.2 µM (inactive) | 44.5 µM (inactive) | > 100 µM (inactive) | –
O/N=C1\CC2(N3CCOCC3)CCC1(Cc1ccccc1)CC2 | 32 µM (inactive) | > 100 µM (inactive) | > 100 µM (inactive) | > 100 µM (inactive) | – | 43.6 µM (inactive) | > 100 µM (inactive) | 64.1 µM (inactive) | > 100 µM (inactive) | 43.4 µM (inactive) | > 100 µM (inactive) | > 100 µM (inactive) | 30.5 µM (inactive) | 24.1 µM (inactive) | > 100 µM (inactive) | > 100 µM (inactive) | > 100 µM (inactive) | 23 µM (inactive) | 26.2 µM (inactive)
CC(=O)N1C(C(=O)NC2CCCCC2)CSC1c1ccccc1 (stereo not drawn) | > 100 µM (inactive) | > 100 µM (inactive) | > 100 µM (inactive) | > 100 µM (inactive) | > 100 µM (inactive) | > 100 µM (inactive) | > 100 µM (inactive) | > 100 µM (inactive) | > 100 µM (inactive) | > 100 µM (inactive) | > 100 µM (inactive) | > 100 µM (inactive) | > 100 µM (inactive) | > 100 µM (inactive) | > 100 µM (inactive) | > 100 µM (inactive) | > 100 µM (inactive) | > 100 µM (inactive) | –
COc1cc(OC)cc(-n2c(N)c(C#N)c3ccc([N+](=O)[O-])cc3c2=O)c1 | 20 µM (inactive) | 20.8 µM (inactive) | – | > 100 µM (inactive) | 24.2 µM (inactive) | – | – | 36.4 µM (inactive) | 30.8 µM (inactive) | – | – | 41.3 µM (inactive) | – | 17.5 µM (inactive) | 35 µM (inactive) | 84.1 µM (inactive) | – | – | 37.5 µM (inactive)
O=C(CSCC(=O)N/N=C/c1cccc(C(F)(F)F)c1)N/N=C/c1cccc(C(F)(F)F)c1 | > 100 µM (inactive) | > 100 µM (inactive) | > 100 µM (inactive) | > 100 µM (inactive) | > 100 µM (inactive) | > 100 µM (inactive) | > 100 µM (inactive) | > 100 µM (inactive) | – | > 100 µM (inactive) | – | > 100 µM (inactive) | > 100 µM (inactive) | > 100 µM (inactive) | > 100 µM (inactive) | > 100 µM (inactive) | > 100 µM (inactive) | > 100 µM (inactive) | –
CC(Nc1cc(Cl)cc(Cl)c1)c1ccncc1 (stereo not drawn) | 23.3 µM (inactive) | > 10 µM (inactive) | 22.4 µM (inactive) | 27.7 µM (inactive) | 35.2 µM (inactive) | 15.4 µM (inactive) | 17.6 µM (inactive) | 23.9 µM (inactive) | 16.9 µM (inactive) | 15.3 µM (inactive) | 16.6 µM (inactive) | 12.1 µM (inactive) | – | 33.8 µM (inactive) | 22.8 µM (inactive) | 16.8 µM (inactive) | – | 15.8 µM (inactive) | –
CCOP(=O)(OCC)C(F)(F)Cc1cnc(C)c2c1COC(C)(C)O2 | > 10 µM (inactive) | > 10 µM (inactive) | > 10 µM (inactive) | > 10 µM (inactive) | > 10 µM (inactive) | > 10 µM (inactive) | > 10 µM (inactive) | > 10 µM (inactive) | > 10 µM (inactive) | – | > 10 µM (inactive) | > 10 µM (inactive) | > 10 µM (inactive) | > 10 µM (inactive) | > 10 µM (inactive) | > 10 µM (inactive) | > 10 µM (inactive) | > 10 µM (inactive) | > 10 µM (inactive)
O=c1c(-c2ccccc2)nnc2n(Cc3ccccc3)c3ccccc3n12 | > 100 µM (inactive) | > 100 µM (inactive) | > 100 µM (inactive) | > 100 µM (inactive) | > 100 µM (inactive) | > 100 µM (inactive) | > 100 µM (inactive) | > 100 µM (inactive) | > 100 µM (inactive) | 26.7 µM (inactive) | – | – | – | > 100 µM (inactive) | > 100 µM (inactive) | > 100 µM (inactive) | > 100 µM (inactive) | – | > 100 µM (inactive)
